Data: article PMC4013589, “LXXLL Peptide Converts Transportan 10 to a Potent Inducer of Apoptosis in Breast Cancer Cells” (International Journal of Molecular Sciences, 2014)
Entries after “also recorded” stand apart in the source; their conditions may differ. Where no end group is shown, it is not given here.

Columns and labels:
[1] = system: MCF-7 breast cancer cells; assay: WST-1 viability assay, MCF-7 cells; assay type: cell-based, human; conditions: WST-1, 5 μM peptide, treated every 24 h, day 3, 1% FBS without insulin; triplicate
Method: (§1) Figure 1. Effects of SRC-1 bioportides on cancer and primary fibroblast cells. (A) Viability of MCF-7 cells; (B) Viability of FB188 cells. Cells were seeded in 96-well plates at a density of 3000 or 2000 cells/well, respectively, and treated after every 24 h with the indicated peptide concentrations. Viability of both cell types was monitored at day 3 via the WST-1 assay. The values shown represent the mean values of one experiment, carried out in triplicate (mean ± SD). In total, three independent experiments were performed.
(§2) Cytotoxicity of peptides was measured via the WST-1 conversion assay (Roche, Mannheim, Germany). FB188 and MCF-7 cells were seeded in 96-well plates at a density of 2000 or 3000 cells/well, respectively, and allowed to adhere overnight. Subsequently the cells were pre-incubated for two days in medium containing 1% FBS without supplementary insulin and exposed to the indicated concentrations of the respective peptide for up to 3 days. WST-1 conversion was determined by colorimetric analysis at 450 nm. Briefly, WST-1 reagent (1/10 of sample volume) was added directly to the growth medium and incubated at 37 °C for 4 h. The absorbance was determined using a microplate reader (Molecular Devices, Sunnyvale, CA, USA) at 450 nm. Untreated cells were designated a cell survival value of 100%.

pS2 mRNA in MCF-7 cells = assay: Quantitative RT-PCR of ERα target gene pS2, MCF-7; assay type: cell-based, human; conditions: MCF-7, 5 μM peptide, day 2, qRT-PCR relative to GAPDH, versus untreated cells
Method: (§3) Figure 3. Inhibition of cell viability by SRC-1 bioportides and their influence on ERα-mediated gene transactivation. (A) MCF-7 cells; (B) MDA-MB-231 cells. Cells were seeded in 24-well plates at low density and were treated every 24 h for 4 days with 5 μM peptide. Cell proliferation was measured after 1, 3, and 4 days of peptide treatment via a propidium iodide viability assay. […] MCF-7 cells were cultured with 5 μM of the indicated peptides and analyzed on day 2 of treatment. The fold change is the value compared with untreated cells. The values shown represent the mean values of one representative experiment, carried out in triplicate (mean ± SD). In total, three independent experiments were performed.
(§4) For quantitative RT-PCR (qPCR) analysis, MCF-7 cells were treated as described above for the proliferation assay. On day 2, cells were lysed and total RNA was extracted using a commercial RNAqueous Kit (Ambion, Austin, TX, USA). Genomic DNA was removed with DNase I treatment (Ambion) according to the supplier’s protocol. RNA was reverse-transcribed using SuperScript III Reverse Transcriptase (Invitrogen, Carlsbad, CA, USA). Subsequently, qPCR was performed using Platinum SYBR Green (Invitrogen) according to the manufacturer’s protocol. […]

[2] = system: HeLa cervical cancer cells; assay: Toxicity to HeLa cells; assay type: cell-based, human; conditions: for Toxicity to HeLa cells: data not shown, concentration not given
MCF-7 cells [3] = assay type: cell-based, human; conditions: for Effect on survival of MCF-7 cells: propidium iodide viability assay, 5 μM every 24 h for 4 days, 1% FBS without insulin
Method: as §3
(§5) Cells were plated at low density in 24-well plates in standard growth medium, as described above. Before peptide treatment, MCF-7 cell growth was impeded by growing cells in 1% FBS containing medium without addition of insulin. At the day of treatment, peptides were added to the growth medium containing 1% FBS to the indicated final concentration. The procedure was repeated every 24 h for 4 days; samples were drawn after 1, 3, and 4 days of treatment and analyzed by cell counting using the propidium iodide viability assay (Nucleocounter, ChemoMetec, Allerød, Denmark) according to manufacturer’s instructions.

MDA-MB-231 cells = assay type: cell-based, human; conditions: for Effect on survival of MDA-MB-231 cells: propidium iodide viability assay, 5 μM every 24 h for 4 days, 1% FBS
Method: as §3, §5

[4] = system: human primary fibroblasts (FB188 cells); assay: WST-1 viability assay, primary fibroblasts (FB188); assay type: cell-based
Method: as §1, §2

CTSD mRNA in MCF-7 cells = assay: Quantitative RT-PCR of ERα target gene CTSD, MCF-7; assay type: cell-based, human; conditions: MCF-7, 5 μM peptide, day 2, qRT-PCR; similar to TP10 or TP10-SRC1_1222–1245 treated cells
Method: as §3, §4

BCL2 mRNA in MCF-7 cells = assay: Quantitative RT-PCR of ERα target gene BCL2, MCF-7; assay type: cell-based, human; conditions: MCF-7, 5 μM peptide, day 2, qRT-PCR; similar to TP10 or TP10-SRC1_1222–1245 treated cells
Method: as §3, §4

MCF-7 cells [5] = assay: Annexin V / 7-AAD flow cytometric detection of apoptosis; assay type: cell-based, human; conditions: MCF-7, 5 μM peptide, 24 h, 1% FBS without insulin, flow cytometry
Method: Figure 4. Flow cytometric detection of apoptosis by annexin V and 7-amino-actinomycin D (7-AAD) staining. (A) Representative dot plots of 7-AAD versus annexin-V-PE. MCF-7 cells were left untreated (control) or were treated with 5 μM of peptide for 24 h in media supplemented with 1% serum. The lower left quadrant contains the vital (double negative) population; the lower right contains the apoptotic (annexin V^+/7-AAD^−) population; the upper right contains the late apoptotic/necrotic (annexin V^+/7-AAD^+) population; and the upper left contains the pre-necrotic (annexin V^−/7-AAD^+) population; (B) Average percentage of apoptotic and late apoptotic/necrotic cells counted from dot plots taken from one representative experiment, error bars indicate mean ± SD. Data are statistically significant with * p < 0.05, ** p < 0.01. In total, three independent experiments were performed.
Annexin V staining was measured using the PE-annexin-V Apoptosis Detection Kit I (BD Biosciences, San Diego, CA, USA). MCF-7 cells (3 × 10^5) were treated for 24 h with 5 μM peptide in growth medium supplemented with 1% FBS and without insulin. […] Following the addition of 0.4 mL of 1× Binding Buffer, fluorescence of annexin V and 7-AAD was detected in the FL-2 and FL-3 channels, respectively, within 1 h using a FACS Calibur flowcytometer (BD Biosciences, Sparks, MD, USA). […]

Row | Substance | Effect on viability of MCF-7 cells [1] | pS2 mRNA levels (pS2 mRNA in MCF-7 cells) | Toxicity to HeLa cells [2] | Effect on survival of MCF-7 cells (MCF-7 cells [3]) | Effect on survival of MDA-MB-231 cells (MDA-MB-231 cells) | other results
1 | TP10 [reference compound] | did not have any effect | No down-regulation | – | – | – | –
2 | NLS-RRRRRRR-PQMQQNVFQYPGAGMVPQGEANF [R7-SRC1_1222–1245, randomly chosen non-structured fragment of SRC-1 with N-terminal R7; negative control] | – | – | not toxic | did not affect survival | did not affect survival | –
3 | PKKKRKVAGYLLGKINLKALAALAKKILYSQTSHKLVQLLTTAEQQ [TP10-SRC1LXXLL] | significantly more toxic; also recorded: highly cytotoxic | No down-regulation | – | significant cytotoxic effects | – | Concentration affecting the viability of primary fibroblasts ([4]; WST-1, day 3): ≥ 4 µM; Cytotoxicity to HeLa cells ([2]; 5 μM): highly cytotoxic; Cells killed (MCF-7 cells [3]; MCF-7, 5 μM every 24 h, day 3, propidium iodide assay): 50%; Number of viable cells (MCF-7 cells [3]; MCF-7, 5 μM every 24 h, day 4, propidium iodide assay): less than 1%; Cells killed (MDA-MB-231 cells; MDA-MB-231, 5 μM every 24 h, day 3, propidium iodide assay): 99%; Number of viable cells (MDA-MB-231 cells; MDA-MB-231, 5 μM every 24 h, day 4, propidium iodide assay): less than 1%; CTSD mRNA expression (CTSD mRNA in MCF-7 cells): slightly elevated; BCL2 mRNA expression (BCL2 mRNA in MCF-7 cells): slightly elevated; Annexin V and 7-AAD double-stained (late apoptotic/necrotic) cells (MCF-7 cells [5]): smaller population of cells that stained for both 7-AAD and annexin V; Annexin V (+)/7-AAD (−) stained (early apoptotic) cells (MCF-7 cells [5]; compared with untreated cells): predominant population of annexin V positive and 7-AAD negative cells
4 | NLS-RRRRRRR-YSQTSHKLVQLLTTAEQQ [R7-SRC1LXXLL] | – | – | not toxic | did not affect survival | did not affect survival | –
5 | NLS-RRRRRRR [R7, hepta-arginine cell-penetrating peptide with SV40 NLS, control, reference compound] | did not have any effect | – | – | – | – | Effect on viability of human primary fibroblasts ([4]; WST-1, 5 μM peptide, treated every 24 h, day 3, 1% FBS, triplicate): did not have any effect
